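In this assay, cells in 96-well plates receive the compound at five concentrations for 48 hours. Endpoints are linearly interpolated between the surrounding concentrations. GI50 marks 50% less growth.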 The source made the active and inactive calls. Rule as the data show it: active = GI50 up to about 1.1 µM and inactive = higher.
Experiments:
Test in all cases: DTP human tumour cell line panel, 48 h
786-0 = tested on: 786-0
A498 = tested on: A498
A549 = tested on: A549
ACHN = tested on: ACHN
CCRF-CEM = tested on: CCRF-CEM
COLO 205 = tested on: COLO 205
DLD-1 = tested on: DLD-1
DMS-114 = tested on: DMS-114
DMS-273 = tested on: DMS-273
EKVX = tested on: EKVX
HCC 2998 = tested on: HCC 2998
HCT-116 = tested on: HCT-116
HCT-15 = tested on: HCT-15
HL-60 = tested on: HL-60
HOP-18 = tested on: HOP-18
HOP-62 = tested on: HOP-62
HOP-92 = tested on: HOP-92
HT-29 = tested on: HT-29
IGROV-1 = tested on: IGROV-1
K562 = tested on: K562
KM-20L2 = tested on: KM-20L2
KM12 = tested on: KM12
LOX IMVI = tested on: LOX IMVI
LXFL 529 = tested on: LXFL 529
M14 = tested on: M14
M19-MEL = tested on: M19-MEL
MOLT-4 = tested on: MOLT-4
Malme-3M = tested on: Malme-3M
NCI-H226 = tested on: NCI-H226
NCI-H23 = tested on: NCI-H23
NCI-H460 = tested on: NCI-H460
NCI-H522 = tested on: NCI-H522
OVCAR-3 = tested on: OVCAR-3
OVCAR-4 = tested on: OVCAR-4
OVCAR-5 = tested on: OVCAR-5
OVCAR-8 = tested on: OVCAR-8
RPMI-8226 = tested on: RPMI-8226
RXF 393 = tested on: RXF 393
SF-268 = tested on: SF-268
SF-295 = tested on: SF-295
SF-539 = tested on: SF-539
SK-MEL-28 = tested on: SK-MEL-28
SK-MEL-2 = tested on: SK-MEL-2
SK-MEL-5 = tested on: SK-MEL-5
SK-OV-3 = tested on: SK-OV-3
SN12C = tested on: SN12C
SNB-19 = tested on: SNB-19
SNB-75 = tested on: SNB-75
SNB-78 = tested on: SNB-78
SR = tested on: SR
SW-620 = tested on: SW-620
TK-10 = tested on: TK-10
U-251 = tested on: U-251
UACC-257 = tested on: UACC-257
UACC-62 = tested on: UACC-62
UO-31 = tested on: UO-31
XF498 = tested on: XF498

O=C1/C(=C/c2ccccc2)CN(C(=O)Oc2ccc(Cl)cc2)C/C1=C\c1ccccc1
GI50 (786-0): 1.96 µM (inactive) | GI50 (A498): 2.11 µM (inactive) | GI50 (A549): 9.33 µM (inactive) | GI50 (ACHN): 3.03 µM (inactive) | GI50 (CCRF-CEM): 1.55 µM (inactive) | GI50 (COLO 205): 3.1 µM (inactive) | GI50 (DLD-1): 1.11 µM (active) | GI50 (DMS-114): 1.79 µM (inactive) | GI50 (DMS-273): 1.83 µM (inactive) | GI50 (EKVX): 10 µM (inactive) | GI50 (HCC 2998): 1.51 µM (inactive) | GI50 (HCT-116): 0.239 µM (active) | GI50 (HCT-15): 1.17 µM | GI50 (HL-60): 0.871 µM (active) | GI50 (HOP-18): 13.1 µM (inactive) | GI50 (HOP-62): 10 µM (inactive) | GI50 (HOP-92): 21.8 µM (inactive) | GI50 (HT-29): 1.14 µM (inactive) | GI50 (IGROV-1): 3.05 µM (inactive) | GI50 (K562): 1.76 µM (inactive) | GI50 (KM-20L2): 2.71 µM (inactive) | GI50 (KM12): 1.49 µM (inactive) | GI50 (LOX IMVI): 0.635 µM (active) | GI50 (LXFL 529): 1.72 µM (inactive) | GI50 (M14): 1.53 µM (inactive) | GI50 (M19-MEL): 1.12 µM (active) | GI50 (MOLT-4): 2.65 µM (inactive) | GI50 (Malme-3M): 11.3 µM (inactive) | GI50 (NCI-H226): 5.74 µM (inactive) | GI50 (NCI-H23): 3.22 µM (inactive) | GI50 (NCI-H460): 2.44 µM (inactive) | GI50 (NCI-H522): 2.25 µM (inactive) | GI50 (OVCAR-3): 3.42 µM (inactive) | GI50 (OVCAR-4): 0.887 µM (active) | GI50 (OVCAR-5): 10.9 µM (inactive) | GI50 (OVCAR-8): 1.65 µM (inactive) | GI50 (RPMI-8226): 0.0957 µM (active) | GI50 (RXF 393): 2.17 µM (inactive) | GI50 (SF-268): 2.99 µM (inactive) | GI50 (SF-295): 2.23 µM (inactive) | GI50 (SF-539): 2.36 µM (inactive) | GI50 (SK-MEL-28): 2.1 µM (inactive) | GI50 (SK-MEL-2): 11.5 µM (inactive) | GI50 (SK-MEL-5): 1.68 µM (inactive) | GI50 (SK-OV-3): 7.13 µM (inactive) | GI50 (SN12C): 1.84 µM (inactive) | GI50 (SNB-19): 3.31 µM (inactive) | GI50 (SNB-75): 4.24 µM (inactive) | GI50 (SNB-78): 2.96 µM (inactive) | GI50 (SR): 1.32 µM (inactive) | GI50 (SW-620): 1.22 µM (inactive) | GI50 (TK-10): 5.21 µM (inactive) | GI50 (U-251): 1.53 µM (inactive) | GI50 (UACC-257): 1.7 µM (inactive) | GI50 (UACC-62): 2.31 µM (inactive) | GI50 (UO-31): 4.75 µM (inactive) | GI50 (XF498): 2.29 µM (inactive)

CC(C)N(C(=O)C12C3C4C5(C#N)C3C1(C#N)C5C42C#N)C(C)C (centres undefined)
GI50 (786-0): > 100 µM (inactive) | GI50 (A498): > 100 µM (inactive) | GI50 (A549): > 100 µM (inactive) | GI50 (ACHN): > 100 µM (inactive) | GI50 (CCRF-CEM): > 100 µM (inactive) | GI50 (COLO 205): > 100 µM (inactive) | GI50 (DLD-1): > 100 µM (inactive) | GI50 (DMS-114): > 100 µM (inactive) | GI50 (DMS-273): > 100 µM (inactive) | GI50 (EKVX): > 100 µM (inactive) | GI50 (HCC 2998): > 100 µM (inactive) | GI50 (HCT-116): > 100 µM (inactive) | GI50 (HL-60): > 100 µM (inactive) | GI50 (HOP-18): > 100 µM (inactive) | GI50 (HOP-62): > 100 µM (inactive) | GI50 (HT-29): > 100 µM (inactive) | GI50 (IGROV-1): > 100 µM (inactive) | GI50 (K562): > 100 µM (inactive) | GI50 (KM-20L2): > 100 µM (inactive) | GI50 (KM12): > 100 µM (inactive) | GI50 (LOX IMVI): > 100 µM (inactive) | GI50 (LXFL 529): > 100 µM (inactive) | GI50 (M19-MEL): > 100 µM (inactive) | GI50 (MOLT-4): > 100 µM (inactive) | GI50 (Malme-3M): > 100 µM (inactive) | GI50 (NCI-H226): > 100 µM (inactive) | GI50 (NCI-H23): > 100 µM (inactive) | GI50 (NCI-H460): > 100 µM (inactive) | GI50 (NCI-H522): > 100 µM (inactive) | GI50 (OVCAR-3): > 100 µM (inactive) | GI50 (OVCAR-4): > 100 µM (inactive) | GI50 (OVCAR-5): > 100 µM (inactive) | GI50 (OVCAR-8): > 100 µM (inactive) | GI50 (RPMI-8226): > 100 µM (inactive) | GI50 (SF-268): > 100 µM (inactive) | GI50 (SF-295): > 100 µM (inactive) | GI50 (SF-539): > 100 µM (inactive) | GI50 (SK-MEL-28): > 100 µM (inactive) | GI50 (SK-MEL-2): > 100 µM (inactive) | GI50 (SK-MEL-5): > 100 µM (inactive) | GI50 (SK-OV-3): > 100 µM (inactive) | GI50 (SN12C): > 100 µM (inactive) | GI50 (SNB-19): > 100 µM (inactive) | GI50 (SNB-75): > 100 µM (inactive) | GI50 (SNB-78): > 100 µM (inactive) | GI50 (SW-620): > 100 µM (inactive) | GI50 (TK-10): > 100 µM (inactive) | GI50 (U-251): > 100 µM (inactive) | GI50 (UACC-257): > 100 µM (inactive) | GI50 (UACC-62): > 100 µM (inactive) | GI50 (UO-31): > 100 µM (inactive) | GI50 (XF498): > 100 µM (inactive)

Reference: ChEMBL document CHEMBL1201862, “PubChem BioAssay data set” (2004)
